Assay results: patent publication US20230242474A1, “LIPID COMPOUND AND THE COMPOSITION THEREOF” (GUANGZHOU RIBOBIO CO., LTD, priority 2020, published 2023)

Experiments:
BALB/c mice = test: Transfection efficiency: in vivo bioluminescence of luciferase mRNA encapsulated by different LNP; conditions: for Average fluorescence intensity, Leg (intramuscular injection) / Average fluorescence intensity, Liver (tail vein injection): 10 μg/mice; for Total photons number, Leg: intramuscular injection, 1 μg/ mice
Protocol: All animals were kept in adaptive feeding for more than 7 days before experiments, free to uptake food and drink water during experimental period, illumination 12/12 h alternating light and dark, room temperature was 20-26° C., humidity was 40-70%.
Experimental method: female BALB/c mice, encapsulated luciferase mRNA with different LNP by four different administrations which included subcutaneous injection (under the armpit), tail vein injection, intraperitoneal injection, intramuscular injection (the tibialis anterior muscle of mouse hind leg); 3, 6, 24, 48 h after administration, applied in vivo fluorescence imaging system (brand: Bruker, model: XTREME) for bioluminescence detection, the specific steps were as follows: substrate preparation: took appropriate amount of substrate Luciferin (brand: Promega) and added saline to make a 10 mg/ml solution, avoided light, injected 100 μl solution into each mouse intraperitoneally. […] Put the anesthetized mouse into machine, set the bioluminescence setting and took the photos, captured the photograph and then adjusted the upper and lower values of photograph, then collected data on the concentrated distribution of fluorescence (e.g., fluorescence intensity, average photons number, and total photons number) and processed data. Statistical analysis: the in vivo imaging outcome were shown in the fluorescence intensity or average of total photons number of different animal in the same tested group, which were used to judge whether the fluorescence intensity or total photon number of luciferase mRNA encapsulated by different LNP were high or low.
The fluorescence intensity and total photons number reflects the transfection efficiency of LNP, the value is higher, referring to the efficiency of delivering encapsulated substance into cell by LNP is higher.

[1] = assay type: physicochemical; conditions: Table 1; for Size (nm): lipid nanoparticle of the ionizable lipid (ionizable lipid/phospholipid/PEG lipid/structural lipid 50/10/1.5/38.5 %) with mRNA; for Encapsulated percentage (%) / PDI: lipid nanoparticle of the ionizable lipid with mRNA

SMILES | Average fluorescence intensity, Leg (intramuscular injection) (BALB/c mice; 3 h after administration) | Average fluorescence intensity, Liver (tail vein injection) (BALB/c mice; 3 h after administration) | Average fluorescence intensity, Leg (intramuscular injection) (BALB/c mice; 6 h after administration) | Average fluorescence intensity, Liver (tail vein injection) (BALB/c mice; 6 h after administration) | Average fluorescence intensity, Leg (intramuscular injection) (BALB/c mice; 24 h after administration) | Average fluorescence intensity, Liver (tail vein injection) (BALB/c mice; 24 h after administration) | Size (nm) [1] [nm] | Encapsulated percentage (%) [1] [%] | PDI [1] | Total photons number, Leg (BALB/c mice; 6 h) | Total photons number, Leg (BALB/c mice; 3 h) | Total photons number, Leg (BALB/c mice; 24 h)
CCCCCCCCCCCCCCCCN(CCO)CCCCCC(=O)OCCCCCCCCCCC [A1] | 61.3 | 20.4 | 80.6 | 27.80 | 38.9 | 15.9 | 127.7 | 88.79 | 0.090 | – | – | –
CCCCCCCCC(CCCCCCCC)OC(=O)CCCCCCCN(CCO)CCCCCCCC(=O)OC(CCCCCCCC)CCCCCCCC [A2, reference compound] | 1146 | 5325.2 | 1208.2 | 5934.7 | 377.7 | 162.6 | 145.5 | 87.86 | 0.100 | – | – | –
CCCCCCCCCCCOC(=O)CCCCCN(CCO)CCCCCC(=O)OCCCCCCCCCCC [A3, reference compound] | 60.3 | 12.1 | 69.8 | 11.9 | 35.9 | 13.5 | 140.6 | 81.47 | 0.120 | – | – | –
CCCCCCCCCCCOC(=O)CCCCCN(CCCO)CCCCCCCC(=O)OC(CCCCCCCC)CCCCCCCC [A4, reference compound] | 1847.5 | 7962.6 | 1956.2 | 7745.9 | 1009.7 | 326.4 | 131.1 | 79.24 | 0.110 | – | – | –
CCCCCCCCC(CCCCCCCC)OC(=O)CCCCCCCN(CCCO)CCCCCCCC(=O)OC(CCCCCCCC)CCCCCCCC [A5] | 675.7 | 2231.2 | 1566.4 | 3738.2 | 892.2 | 73.5 | 135.0 | 90.11 | 0.090 | – | – | –
CCCCCCCCCCCOC(=O)CCCCCN(CCCO)CCCCCC(=O)OCCCCCCCCCCC [A6] | 60.3 | 11.9 | 40.9 | 9.0 | 19.1 | 12.2 | 171.5 | 87.09 | 0.190 | – | – | –
CCCCC/C=C/C/C=C/CCCCCCCCN(CCO)CCCCCCCC(=O)OC(CCCCCCCC)CCCCCCCC [A8, reference compound] | 1111 | 6850.3 | 2161.8 | 10174.4 | 1294.9 | 220.8 | 142.2 | 76.10 | 0.120 | – | – | –
CCCCC/C=C/C/C=C/CCCCCCCCN(CCO)CCCCCC(=O)OCCCCCCCCCCC [A9] | 461.4 | 198.9 | 432.0 | 252.7 | 178.3 | 14.6 | 129.4 | 93.35 | 0.120 | – | – | –
CCCCC/C=C/C/C=C/CCCCCCCCN(CCO)CCCCCCCC(=O)OC(COCCCCCC)COCCCCCC [A10] | – | – | – | – | – | – | 121.6 | 82.65 | 0.104 | 3.17E+09 | – | –
CCCCCCCCCCCOC(=O)CCCCCN(CCO)CCCCCCCC(=O)OC(COCCCCCC)COCCCCCC [A11] | – | – | – | – | – | – | – | – | – | 1.33E+09 | – | –
CCCCC/C=C/C/C=C/CCCCCCCCN(CCCO)CCCCCC(=O)OCCCCCCCCCCC [A12] | – | – | – | – | – | – | 119.3 | 86.53 | 0.083 | 6.91E+08 | – | –
CCCCCCCCC(CCCCCCCC)OC(=O)CCCCCCCN(CCO)CCCCCCCC(=O)OC(COCCCCCC)COCCCCCC [A13] | – | – | – | – | – | – | 96.87 | 95.51 | 0.146 | 3.66E+09 | – | –
CCCCC/C=C/C/C=C/CCCCCCCCN(CCCO)CCCCCCCC(=O)OC(COCCCCCC)COCCCCCC [A15] | – | – | – | – | – | – | – | – | – | 8.78E+08 | – | –
CCCCCCCCC(CCCCCCCC)OC(=O)CCCCCCCN(CCCO)CCCCCCCC(=O)OC(COCCCCCC)COCCCCCC [A17] | – | – | – | – | – | – | 109.5 | 92.99 | 0.1037 | – | – | –
CCCCCCOCC(COCCCCCC)OC(=O)CCCCCCCN(CCCO)CCCCCCCC(=O)OC(COCCCCCC)COCCCCCC [A19] | – | – | – | – | – | – | 110.1 | 88.00 | 0.0923 | 4.77E+09 | 3.69E+09 | 7.33E+08
CCCCCCOCC(COCCCCCC)OC(=O)CCCCCCCN(CCCO)CCCCCCCCCCCC(=O)OC(COCC)COCC [A26] | – | – | – | – | – | – | 120.3 | 83.56 | 0.064 | – | – | –
CCCCCCOCC(COCCCCCC)OC(=O)CCCCCCCN(CCCCCCCC(=O)OC(COCCCCCC)COCCCCCC)CCCNc1c(NCCCNc2c(NC)c(=O)c2=O)c(=O)c1=O [A29] | – | – | – | – | – | – | 126.4 | 89.98 | 0.05 | – | – | –
CCCCCCOCC(COCCCCCC)OC(=O)CCCCCCCN(CCCCCCCC(=O)OC(COCCCCCC)COCCCCCC)CCCNc1c(NCCCNc2c(NCCCN(CCCCCCCC(=O)OC(COCCCCCC)COCCCCCC)CCCCCCCC(=O)OC(COCCCCCC)COCCCCCC)c(=O)c2=O)c(=O)c1=O [A30] | – | – | – | – | – | – | 110.1 | 98.14 | 0.28 | – | – | –
CCCCCCCCOCC(COCCCCCCCC)OC(=O)CCCCCCCN(C)CCCNc1c(NCCCN(C)CCCCCCCC(=O)OC(COCCCCCCCC)COCCCCCCCC)c(=O)c1=O [A31] | – | – | – | – | – | – | – | – | – | 2.65E+08 | 1.58E+08 | 8.43E+07
CCCCCCOCC(COCCCCCC)OC(=O)CCCCCCCN(C)CCCNc1c(NCCCNc2c(NCCCN(C)CCCCCCCC(=O)OC(COCCCCCC)COCCCCCC)c(=O)c2=O)c(=O)c1=O [A32] | – | – | – | – | – | – | 128.7 | 94.19 | 0.07 | – | – | –
